According to ChEMBL document CHEMBL4219041, “Improving oral bioavailability of cyclic peptides by N-methylation” (Bioorg Med Chem, 2018):
Square brackets hold non-standard residues; d marks the D form. Peptide text beside a SMILES is read from it. dNMeW = CN[C@H](Cc1c[nH]c2ccccc12)C(=O)O; NMeF = CN[C@@H](Cc1ccccc1)C(=O)O; NMeK = CN[C@@H](CCCCN)C(=O)O

Assays:
[1] = Efflux ratio of apparent permeability from basolateral to apical over apical to basolateral side in human Caco2 cells; format: ADME, cell-based; conditions: Caco-2
[2] = Oral bioavailability in rat at 10 mg/kg; format: ADME, organism-based; conditions: in vivo

efflux ratio [1]	bioavailability [2]	Compound
2.05	–	C[C@@H]1NC(=O)[C@H](C)NC(=O)[C@@H](C)N(C)C(=O)[C@H](C)N(C)C(=O)[C@H](C)NC(=O)[C@H](C)NC1=O
1.93	–	C[C@@H]1NC(=O)[C@H](C)NC(=O)[C@@H](C)N(C)C(=O)[C@H](C)NC(=O)[C@H](C)N(C)C(=O)[C@H](C)NC1=O
1.97	–	C[C@@H]1NC(=O)[C@H](C)N(C)C(=O)[C@H](C)N(C)C(=O)[C@H](C)NC(=O)[C@H](C)N(C)C(=O)[C@@H](C)N(C)C1=O
0.08	–	C[C@@H]1NC(=O)[C@H](C)N(C)C(=O)[C@H](C)N(C)C(=O)[C@H](C)NC(=O)[C@@H](C)N(C)C(=O)[C@H](C)N(C)C1=O
–	10%	C[C@@H](O)[C@@H]1NC(=O)[C@H](CCCCN)N(C)C(=O)[C@@H](Cc2c[nH]c3ccccc23)N(C)C(=O)[C@H](Cc2ccccc2)NC(=O)[C@@H]2CCCN2C(=O)[C@H](Cc2ccccc2)N(C)C1=O (cyclo(F[dNMeW][NMeK]T[NMeF]P))
